# Test system: IFNα-induced STAT phosphorylation (pSTAT5) in human whole blood
# Assay: IFNα-Induced STAT Phosphorylation in Human Whole Blood
# Assay type: cell-based
# Conditions: 1 h incubation with compound, 1000 U/mL recombinant human IFNα A/D for 15 min, pSTAT5 in CD3 positive population, read-out: IFNα-Induced Stat Phosph. (IC50)
row,SMILES,IC50 [nM]
1,CNC(=O)c1cnc(Nc2cc(C#N)c(C)cn2)cc1Nc1ncccc1S(C)(=O)=O [Example 230],22
2,CNC(=O)c1cnc(Nc2cc(C(F)(F)F)c(C#N)cn2)cc1Nc1ncccc1S(C)(=O)=O [Example 231],360
3,CNC(=O)c1cnc(NC(=O)C2CC2)cc1Nc1ncccc1S(C)(=O)=O [Example 236],13
4,CNC(=O)c1cnc(NC(=O)OC)cc1Nc1ncccc1S(C)(=O)=O [Example 237],1080
5,CNC(=O)c1cnc(Nc2cccc(-c3ccccc3)n2)cc1Nc1ncccc1S(C)(=O)=O [Example 238],2450
6,CNC(=O)c1cnc(NC(=O)C2CCC2)cc1Nc1ncccc1S(C)(=O)=O [Example 239],288
7,CNC(=O)c1cnc(Nc2ccc(OC(F)(F)F)cn2)cc1Nc1ncccc1S(C)(=O)=O [Example 240],115
8,CCC(=O)Nc1cc(Nc2nc(C)ccc2S(C)(=O)=O)c(C(=O)NC)cn1 [Example 241],203
9,CNC(=O)c1cnc(NC(=O)C2CC2)cc1Nc1nc(C)ccc1S(C)(=O)=O [Example 242],50
10,CNC(=O)c1nnc(Nc2cc(C)nc(C)n2)cc1Nc1ncccc1[S+](C)[O-] (stereo not drawn) [Example 254],186
11,CNC(=O)c1nnc(Nc2ccc(OC)nn2)cc1Nc1ncccc1[S+](C)[O-] (stereo not drawn) [Example 255],466
12,CCNC(=O)c1nnc(Nc2cc(C3CC3)nc(C)n2)cc1Nc1ncccc1S(C)(=O)=O [compound 212],1080

# The next lines start with the values.
row,IC50 [nM],SMILES
1,181,CNC(=O)c1cnc(Nc2cc(C3CC3)nc(C3CC3)n2)cc1Nc1ncccc1S(C)(=O)=O [Example 228]
2,47,CNC(=O)c1cnc(Nc2cc(C3CC3)nc(C)n2)cc1Nc1ncccc1S(C)(=O)=O [Example 229]
3,131,CNC(=O)c1cnc(Nc2cc(C#N)c(C(F)(F)F)cn2)cc1Nc1ncccc1S(C)(=O)=O [Example 232]
4,61,CNC(=O)c1cnc(Nc2cc(C)c(C#N)cn2)cc1Nc1ncccc1S(C)(=O)=O [Example 233]
5,144,CCC(=O)Nc1cc(Nc2ncccc2S(C)(=O)=O)c(C(=O)NC)cn1 [Example 235]
6,10,"CNC(=O)c1nnc(Nc2ccc(C(C)(C)C)nn2)cc1Nc1ncccc1S(C)(=O)=O [Example 245, 6-((6-(tert-butyl)pyridazinyl-3-yl)amino)-N-(methyl-d3)-4-((3-(methylsulfonyl)pyridin-2-yl)amino)pyridazine-3-carboxamide]"
7,47,"[2H]C([2H])([2H])NC(=O)c1nnc(NC(=O)[C@H]2CC23CC3)cc1Nc1ncccc1S(C)(=O)=O [Example 253, (S)—N-(methyl-d3)-4-((3-(methylsulfonyl)pyridin-2-yl)amino)-6-(spiro[2.2]pentane-1-carboxamido)pyridazine-3-carboxamide]"
8,744,CNC(=O)c1nnc(Nc2ccn(C)n2)cc1Nc1ncccc1[S+](C)[O-] (stereo not drawn) [Example 256]
9,11,CNC(=O)c1nnc(Nc2ccc(C(C)(C)NC3COC3)cn2)cc1Nc1ncccc1S(C)(=O)=O [compound 170]
10,46,Cn1ccc(Nc2cc(Nc3ncccc3S(C)(=O)=O)c(C(N)=O)nn2)n1 [compound 214]

# Same assay, conditions: Homo sapiens, 1 h incubation with compound, 1000 U/mL recombinant human IFNα A/D for 15 min, pSTAT5 in CD3 positive population, read-out: IFNα-Induced Stat Phosph. (IC50)
row,SMILES,IC50 [nM]
1,"[2H]C([2H])([2H])NC(=O)c1cnc(Nc2ccc(-c3ccccc3)cn2)cc1Nc1ncccc1S(C)(=O)=O [Example 234, N-(methyl-d3)-4-((3-(methylsulfonyl)pyridin-2-yl)amino)-6-((5-phenylpyridin-2-yl)amino)nicotinamide]",636
2,"[2H]C([2H])([2H])NC(=O)c1nnc(Nc2cccnn2)cc1Nc1ncccc1S(C)(=O)=O [Example 251, N-(methyl-d3)-4-((3-(methylsulfonyl)pyridin-2-yl)amino)-6-(pyridazin-3-ylamino)pyridazine-3-carboxamide]",7

# The remaining lines, values ahead:
row,IC50 [nM],SMILES
1,34,"[2H]C([2H])([2H])NC(=O)c1nnc(Nc2ccc(OC(F)F)nn2)cc1Nc1ncccc1S(C)(=O)=O [Example 246, 6-((6-(difluoromethoxy)pyridazin-3-yl)amino)-N-(methyl-d3)-4-((3-(methylsulfonyl)pyridin-2-yl)amino)pyridazine-3-carboxamide]"
2,6,"[2H]C([2H])([2H])NC(=O)c1nnc(Nc2ccc(C(C)C)nn2)cc1Nc1ncccc1S(C)(=O)=O [Example 247, 6-((6-isopropylpyridazin-3-yl)amino)-N-(methyl-d3)-4-((3-(methylsulfonyl)pyridin-2-yl)amino)pyridazine-3-carboxamide]"
3,53,"[2H]C([2H])([2H])NC(=O)c1nnc(NC(=O)[C@@H]2CC23CC3)cc1Nc1ncccc1S(C)(=O)=O [Example 252, (R)—N-(methyl-d3)-4-((3-(methylsulfonyl)pyridin-2-yl)amino)-6-(spiro[2.2]pentane-1-carboxamido)pyridazine-3-carboxamide]"

# Source: US12365667B2, “Sulfone pyridine alkyl amide-substituted heteroaryl compounds” (BRISTOL-MYERS SQUIBB COMPANY, priority 2017, dated 2025)
